Assay results taken from patent publication US4166861A, “Pharmacologically active polyphenolic substances” (Inverni della Beffa S.p.A., priority 1976, dated 1979).
Like-named read-outs stand apart in the source and are kept apart here.

Assays:
[1] = Triton hyperlipaemia in the rat (plasma cholesterol and triglycerides); assay type: in vivo, Sprague Dawley rats; details: 100 mg/kg i.p. (50 mg/kg immediately after Triton, 50 mg/kg after 4 hours); significant
Description: The products under examination were injected intraperitoneally at the dosage of 100 mg./kg. of which 50 mg./kg. immediately after the Triton and 50 mg./kg. after 4 hours. After a further 4 hours the animals were slaughtered and the cholesterol and triglycerides in the plasma were measured.

[2] = Choleretic activity in the rat, intraperitoneal administration (bile volume and dry residue); assay type: in vivo, Sprague Dawley rats; details: for Bile Volume 3 Hours after Treatment / Dry Residue 3 Hours after Treatment / increase of the dry residue of the bile in comparison with the basal values / increase of the volume of the bile in comparison with the basal values: 100 mg/kg i.p.; for Bile Volume 3 Hours after Treatment / Dry Residue 3 Hours after Treatment: awake rat; for increase of the dry residue of the bile in comparison with the basal values / increase of the volume of the bile in comparison with the basal values: measured from 1 hour to 4 hours after administration; for choleretic action (in words): Table 2, 100 mg/kg i.p., bile volume and dry residue three hours after treatment
Description: (§1) The choleretic activity was determined in accordance with the technique described by R. Lambert in "Surgery of the Digestive System in the Rat" 1965. Sprague Dawley rats of mean weight of 230 g. were used. The products were injected intraperitoneally at the dosage of 100 mg/kg., the volume of the bile and the corresponding dry residue being measured then from 1 hour to 4 hours after administration. […] These increases are significant.
2. Choleretic Activity--Intra-Peritoneal Administration
The choleretic activities of catechin and catechin pentacetyl ferulate were determined in the manner described in paragraph A above.

[3] = Toxicity (LD50); assay type: in vivo; details: for LD50: in vivo
[4] = Olive oil-induced hyperlipaemia in the rat (plasma triglycerides); assay type: in vivo, Sprague Dawley rats; details: for diminution of the concentration of triglycerides in the plasma in comparison with the controls: 100 mg/kg orally, two treatments, 2 h before and 2 h after olive oil, significant; for Triglycerides: 100 mg/kg per os, controls (water) 171.5±18.6; for hypolipaemic effect (in words): Table 3, 100 mg/kg per os
Description: The hyperlipaemic activity was determined in Sprague Dawley rats of mean weight of 160 g., in which hyperlipaemia was induced by means of administration of 20 ml./kg. of olive oil orally in animals which had been fasting for 16 hours. Two treatments were effected with the products under examination (upon groups of 18 animals), the first two hours before the olive oil, the second two hours afterwards. The doses were administered orally and were equal to 100 mg./kg.
3. Hypolipaemic Effect--Effect on Olive Oil-Induced Hyperlipaemia
The hypolipaemic activity of catechin and epicatechin was determined in the manner described in paragraph B1 above.

[5] = Lipidic metabolism in the normally fed rat (plasma free fatty acids); assay type: in vivo, Sprague Dawley rats; details: single dose 100 mg/kg i.p., after two hours; normolipaemic rats; significant
Description: The tests were conducted on Sprague Dawley rats of mean weight of 200 g. which were normolipaemic and to which the products had been administered intraperitoneally in a single dose of 100 mg./kg. After two hours the animals were slaughtered and the free fatty acids in the plasma were measured.

[6] = Choleretic activity in the rat, oral administration (bile volume and dry residue); assay type: in vivo, Sprague Dawley rats; details: 200 mg/kg per os; for Bile Volume 2 Hours after Treatment / Dry Residue 2 Hours after Treatment / Bile Volume 3 Hours after Treatment / Dry Residue 3 Hours after Treatment: awake rat
Description: as §1
1. Choleretic Activity--Oral Administration
The choleretic activities of catechin and epicatechin were determined in the manner described in paragraph A above except that the substances under test were administered per os at the rate of 200 mg./kg.

[7] = epicatechin compared with catechin

| SMILES | diminution of the concentration of cholesterol in the plasma in comparison with the controls [1] | diminution of the concentration of triglycerides in the plasma in comparison with the controls [1] | Bile Volume 3 Hours after Treatment [2] | Dry Residue 3 Hours after Treatment [2] | increase of the dry residue of the bile in comparison with the basal values [2] | increase of the volume of the bile in comparison with the basal values [2] | choleretic action (in words) [2] | diminution of the concentration of triglycerides in the plasma in comparison with the controls [4] | diminution of the concentration of free fatty acids in the plasma in comparison with the controls [5] | Triglycerides [4] | hypolipaemic effect (in words) [4] | Bile Volume 2 Hours after Treatment [6] | Dry Residue 2 Hours after Treatment [6] | Bile Volume 3 Hours after Treatment [6] | Dry Residue 3 Hours after Treatment [6] | also measured |
| --- | --- | --- | --- | --- | --- | --- | --- | --- | --- | --- | --- | --- | --- | --- | --- | --- |
| CC(=O)Oc1cc(OC(C)=O)c2c(c1)O[C@H](c1ccc(OC(C)=O)c(OC(C)=O)c1)[C@@H](OC(C)=O)C2 [Example 4, Catechin pentaacetate] | 16.3% | 23.1% |  |  |  |  |  |  |  |  |  |  |  |  |  |  |
| COc1cc(C=CC(=O)Oc2cc(OC(=O)C=Cc3ccc(OC(C)=O)c(OC)c3)c3c(c2)O[C@H](c2ccc(OC(=O)C=Cc4ccc(OC(C)=O)c(OC)c4)c(OC(=O)C=Cc4ccc(OC(C)=O)c(OC)c4)c2)[C@@H](OC(=O)C=Cc2ccc(OC(C)=O)c(OC)c2)C3)ccc1OC(C)=O [Catechin pentacetylferulate, catechin peracetylferulate] |  |  | 0.88 ± 0.05 mL | 15.6 ± 0.60 mg | 36% | 64% | marked choleretic action |  |  |  |  |  |  |  |  | LD50 i.p. ([3]; i.p.): > 1000 mg/kg |
| O=C(Oc1cc(OC(=O)c2cccnc2)c2c(c1)O[C@H](c1ccc(OC(=O)c3cccnc3)c(OC(=O)c3cccnc3)c1)[C@@H](OC(=O)c1cccnc1)C2)c1cccnc1 [pernicotinylcatechin] | 21.1% | 28.7% |  |  |  |  |  | 27% | 13.1% |  |  |  |  |  |  |  |
| CC1(C)Oc2ccc([C@H]3Oc4cc(O)cc(O)c4C[C@@H]3O)cc2O1 [catechin acetonide] |  |  |  |  |  |  |  |  | 25.8% |  |  |  |  |  |  |  |
| Oc1cc(O)c2c(c1)O[C@H](c1ccc(O)c(O)c1)[C@@H](O)C2 [Catechin, catechin, reference compound] |  |  | 0.62 ± 0.08 mL | 10.0 ± 4.20 mg |  |  | no statistically significant choleretic effect |  |  | 120.7±17.6 mg/100 ml | no statistically significant hypolipaemic effect | 0.84 ± 0.02 mL | 18.2 ± 0.37 mg | 0.81 ± 0.03 mL | 16.6 ± 0.81 mg | LD50 ([3]; ip, read-out: LD50 i.p.): > 1000 mg/kg; LD50 ([3]; po, per os, read-out: LD50 per os): > 2000 mg/kg |
| Oc1cc(O)c2c(c1)O[C@H](c1ccc(O)c(O)c1)[C@H](O)C2 [Epicatechin, epicatechin] |  |  |  |  | 35% | 38% |  | 42% |  | 98.6±12.0 mg/100 ml | marked hypolipaemic effect | 1.02 ± 0.07 mL | 18.1 ± 2.0 mg | 0.89 ± 0.09 mL | 16.5 ± 2.13 mg | choleretic activity (in words) [6, 7]: markedly higher choleretic activity than catechin; duration of choleretic effect (in words) [6, 7]: the choleretic effect is of longer duration |
